In patent US20210260055A1, “TOPICAL FORMULATIONS OF DGAT1 INHIBITORS AND THEIR METHODS OF USE” (Dermavant Sciences GmbH, priority 2018, published 2021):
Read-outs that look alike come from different tables or passages of the source.

Experiments:
[1] = tested on: Human immortalized sebocytes; assay: Cleaved Caspase 3 Assay; assay type: cell-based; conditions: for cleaved caspase 3: any concentration, 2, 3 and 5 day treatment; for sebocyte apoptosis: conditions of this in vitro assay
Experimental: This assay examines the ability of compounds to induce apoptosis by measuring Caspase 3 generated by proteolytic processing. Cells were seeded in tissue culture treated clear bottom plates. Compounds were added in the presence of Liver X Receptor (LXR) agonist (T0901317) and 1 μM insulin for 2, 3 and 5 days. For the 5 day treatment fresh compounds were added at Day 3. After the treatment period lysates were prepared according to the manufacturer's instructions and frozen at −80° C. until the day of the assay.
Protocol—Day 1: Human immortalized sebocytes were seeded at 10,000 cells/well in 96-well, clear bottom plates in Sebocyte Growth Medium and allowed to attach overnight at 37° C. Day 2: Medium was refreshed by removing seeding medium and adding fresh Sebocyte Growth Medium. Cells were maintained at 37° C. to allow degradation of the temperature sensitive SV40 large T antigen. Day 4: 1000× stocks (in DMSO) of each compound were prepared (3 mM and 100 μM) and were diluted 1:1000 in Sebocyte Treatment Media containing 1 μM T0901317 and 1 μM Insulin to give a final top concentration of 3000 nM and 100 nM for further 10-fold dilutions in the same medium according to the plate map below. The cell medium was removed and replaced with Sebocyte Treatment Medium containing 1 μM T0901317, 1 μM Insulin, compound dilution, or vehicle (DMSO) as per plate maps for a 2, 3 and 5 day treatment. For untreated controls, media was removed and replaced with Sebocyte Treatment Media only (no T091317 or Insulin). For the 5 day treatment cells were retreated as described above on Day 7. Day 6, 7 or Day 9: 1) After treatment, the plate was centrifuged at 300×g for 10 minutes. 2) After centrifugation, the medium was removed the cells rinsed with ice-cold PBS and then centrifuged again at 300×g for 10 minutes. 3) After centrifugation the PBS was removed and replaced with 30 μl/well and left on ice for 5 minutes. 4) After 5 minutes, the lysates were frozen at −80° C. until the day of the assay. Day of Assay: Buffers and reagents were prepared according to the manufacturer's instructions. 1) 25 μl of lysate was added to the corresponding well of a 96 well black clear bottom plates. 2) 200 μl of the prepared substrate solution B was added to each well. 3) After 1 hr incubation in the dark, the relative fluorescence was determined using the following settings: 380ex/420em.
Data analysis—IC50s were determined for each test sample by using appropriate curve fits in GraphPad Prism (v.7). […]

[2] = Toxicokinetic assessment of systemic exposure in minipigs following dermal administration; assay type: in vivo; conditions: Göttingen, minipig, plasma, topical or ocular; for AUC(0-t): read-out: AUC0-24; for Tmax: Median (Min-Max)
Experimental: Male and female göttingen minipigs were dosed daily for a period of 28 days in a GLP toxicity study with DMVT-503 gel at 0.1%, 0.3%, and 0.6%. DMVT-503 concentrations were quantitated using a validated LC-MS/MS method and toxicokinetic parameters were calculated for all dosing groups, sexes, and sampling occasions. The systemic exposures observed in this study are supportive of the effective delivery of DMVT-503 into and through minipig skin by the gel formulations tested. Table 10 presents the summary as mean±SD on Days 1 and 28 following daily dermal application of DMVT-503 gel formulations at 0.1%, 0.3%, and 0.6% (2, 6, and 12 mg/kg/day, respectively).

[3] = female, 2 mg/kg/day, Day 1, Female, 2 mg/kg/day, 0.1% gel
[4] = female, 2 mg/kg/day, Day 28, Female, 2 mg/kg/day, 0.1% gel
[5] = female, 6 mg/kg/day, Day 1, Female, 6 mg/kg/day, 0.3% gel
[6] = female, 6 mg/kg/day, Day 28, Female, 6 mg/kg/day, 0.3% gel
[7] = female, 12 mg/kg/day, Day 1, Female, 12 mg/kg/day, 0.6% gel
[8] = female, 12 mg/kg/day, Day 28, Female, 12 mg/kg/day, 0.6% gel
[9] = male, 2 mg/kg/day, Day 1, Male, 2 mg/kg/day, 0.1% gel
[10] = male, 2 mg/kg/day, Day 28, Male, 2 mg/kg/day, 0.1% gel
[11] = male, 6 mg/kg/day, Day 1, Male, 6 mg/kg/day, 0.3% gel
[12] = male, 6 mg/kg/day, Day 28, Male, 6 mg/kg/day, 0.3% gel
[13] = male, 12 mg/kg/day, Day 1, Male, 12 mg/kg/day, 0.6% gel
[14] = male, 12 mg/kg/day, Day 28, Male, 12 mg/kg/day, 0.6% gel

Cc1nc(C)c(-c2ccc([C@H]3CC[C@H](CC(=O)O)CC3)cc2)nc1C(N)=O [DMVT-503, 2-((1R,4R)-4-(4-(6-carbamoyl-3,5-dimethylpyrazin-2-yl)phenyl)cyclohexyl)acetic acid]
cleaved caspase 3 [1]: No significant cleaved caspase 3 detected
sebocyte apoptosis [1]: did not induce sebocyte apoptosis
Cmax [2, 3]: 37.3 ng/mL
AUC(0-t) [2, 3]: 323 ng·h/mL
Cmax [2, 4]: 193 ng/mL
AUC(0-t) [2, 4]: 3940 ng·h/mL
Tmax [2, 3]: 24 h
Tmax [2, 4]: 1 h
Cmax [2, 5]: 210 ng/mL
AUC(0-t) [2, 5]: 1750 ng·h/mL
Cmax [2, 6]: 487 ng/mL
AUC(0-t) [2, 6]: 8660 ng·h/mL
Tmax [2, 5]: 24 h
Tmax [2, 6]: 0 h
Cmax [2, 7]: 171 ng/mL
AUC(0-t) [2, 7]: 1490 ng·h/mL
Cmax [2, 8]: 1370 ng/mL
AUC(0-t) [2, 8]: 25400 ng·h/mL
Tmax [2, 7]: 24 h
Tmax [2, 8]: 0 h
Cmax [2, 9]: 35.1 ng/mL
AUC(0-t) [2, 9]: 307 ng·h/mL
Cmax [2, 10]: 19.6 ng/mL
AUC(0-t) [2, 10]: 3970 ng·h/mL
Tmax [2, 9]: 24 h
Tmax [2, 10]: 0 h
Cmax [2, 11]: 53 ng/mL
AUC(0-t) [2, 11]: 478 ng·h/mL
Cmax [2, 12]: 940 ng/mL
AUC(0-t) [2, 12]: 17500 ng·h/mL
Tmax [2, 11]: 24 h
Tmax [2, 12]: 2 h
Cmax [2, 13]: 103 ng/mL
AUC(0-t) [2, 13]: 10500 ng·h/mL
Cmax [2, 14]: 1160 ng/mL
AUC(0-t) [2, 14]: 22300 ng·h/mL
Tmax [2, 13]: 24 h
Tmax [2, 14]: 1 h

CC1=C(/C=C/C(C)=C/C=C/C(C)=C\C(=O)O)C(C)(C)CCC1 [Mix 13-cis-RA, 13-cis-retinoic Acid, reference compound]
cleaved caspase 3 [1]: No significant cleaved caspase 3 detected
sebocyte apoptosis [1]: did not induce sebocyte apoptosis
